Columns and labels:
CDK1/Cyclin B1 = CDK1/Cyclin B1 (Homo sapiens, UniProt P06493); test: CDK1/Cyclin B1 Biochemical Assay (TR-FRET), 1 mM ATP; details: 0.15 μM Rb (Ser780)-biotin substrate, pH7.0, 60 min preincubation, 90 min reaction, room temperature
Description: (§1) CDK2/Cyclin E1 and CDK1/Cyclin B1 Biochemical Assays
(§2) Compounds disclosed herein were tested for inhibition of CDK2/Cyclin E1 or CDK1/Cyclin B1 kinase in an assay based on the time-resolved fluorescence-resonance energy transfer (TR-FRET) methodology. The assay was carried out in 384-well low volume black plates in a reaction mixture containing CDK2/Cyclin E1 or CDK1/Cyclin B1, 1 mM ATP for CDK2/Cyclin E1 and CDK1/Cyclin B1, 0.15 μM Rb (Ser780)-biotin substrate and 0-10 μM compound in buffer containing 50 mM HEPES pH7.0, 0.02% NaN3, 0.01% BSA, 0.1 mM Orthovanadate, 50 mM MgCl2, 1 mM DTT and 0.005% Tween-20. The kinase was incubated with compound for 60 minutes at room temperature and the reaction was initiated by the addition of ATP and Rb (Ser780)-biotin substrate. After reaction at room temperature for 90 minutes, an equal volume of stop/detection solution was added according to the manufacture's instruction (Cisbio Bioassays). The stop/detection solution contained Streptavidin-XL665 and Anti-pRb (Ser780) mAb-Eu Cryptate in Detection buffer (Cisbio Bioassays). Plates were incubated at room temperature for 60 minutes, and the TR-FRET signals (ex337 nm, em665 nm/620 nm) were recorded on a PHERAstar FSX plate reader (BMG Labtech). The inhibition percentage of CDK2/Cyclin E1 or CDK1/Cyclin B1 kinase activity in presence of increasing concentrations of compounds was calculated based on the ratio of fluorescence at 665 nm to that at 620 nm. The IC50 for each compound was derived from fitting the data to the four-parameter logistic equation by Dotmatics.

CDK2/Cyclin E1 = CDK2/Cyclin E1 (Homo sapiens, UniProt P24941); test: CDK2/Cyclin E1 Biochemical Assay (TR-FRET), 1 mM ATP; details: 0.15 μM Rb (Ser780)-biotin substrate, pH7.0, 60 min preincubation, 90 min reaction, room temperature
Description: as §1, §2

Sequence of CDK1/Cyclin B1 (P06493 whole entry): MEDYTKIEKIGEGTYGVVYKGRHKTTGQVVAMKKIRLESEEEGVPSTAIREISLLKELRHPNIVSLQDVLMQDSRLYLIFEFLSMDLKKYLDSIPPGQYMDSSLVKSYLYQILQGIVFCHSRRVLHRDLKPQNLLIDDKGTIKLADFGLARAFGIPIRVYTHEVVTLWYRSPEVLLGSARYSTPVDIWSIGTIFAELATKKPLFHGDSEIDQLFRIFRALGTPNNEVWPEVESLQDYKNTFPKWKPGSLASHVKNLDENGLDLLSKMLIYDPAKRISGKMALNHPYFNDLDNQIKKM
Sequence of CDK1/Cyclin B1 (P14635 whole entry partner): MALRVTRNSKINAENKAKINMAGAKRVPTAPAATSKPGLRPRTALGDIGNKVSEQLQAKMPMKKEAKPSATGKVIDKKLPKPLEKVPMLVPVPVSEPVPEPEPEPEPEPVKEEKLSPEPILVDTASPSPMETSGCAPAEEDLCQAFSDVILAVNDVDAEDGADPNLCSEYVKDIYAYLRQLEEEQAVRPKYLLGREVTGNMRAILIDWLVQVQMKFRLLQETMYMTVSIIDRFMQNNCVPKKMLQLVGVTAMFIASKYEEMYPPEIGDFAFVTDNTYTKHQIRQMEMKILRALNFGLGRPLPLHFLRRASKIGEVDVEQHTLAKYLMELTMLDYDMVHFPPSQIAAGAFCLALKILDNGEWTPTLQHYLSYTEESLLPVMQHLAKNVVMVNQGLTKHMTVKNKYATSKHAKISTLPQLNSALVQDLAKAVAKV

| IC50 (CDK1/Cyclin B1) | IC50 (CDK2/Cyclin E1) | SMILES |
| --- | --- | --- |
| 8020 nM | 14 nM | CC(C)(CO)NC(=O)O[C@H]1CC[C@@H](c2cc(Nc3ccc4c(c3F)CN(C3CC3)S4(=O)=O)n[nH]2)C1 (single isomer, unassigned) [Example 359a, cis-3-(3-((2-cyclopropyl-4-fluoro-1,1-dioxido-2,3-dihydrobenzo[d]isothiazol-5-yl)amino)-1H-pyrazol-5-yl)cyclopentyl(1-hydroxy-2-methylpropan-2-yl)carbamate] |
| 2890 nM | 7.1 nM | CC(C)(CO)NC(=O)O[C@H]1CC[C@@H](c2cc(Nc3ccc4c(c3F)CN(C3CC3)S4(=O)=O)n[nH]2)C1 (single isomer, unassigned) [Example 359b, cis-3-(3-((2-cyclopropyl-4-fluoro-1,1-dioxido-2,3-dihydrobenzo[d]isothiazol-5-yl)amino)-1H-pyrazol-5-yl)cyclopentyl(1-hydroxy-2-methylpropan-2-yl)carbamate] |
| 2420 nM | 2.2 nM | CC(C)(CO)NC(=O)O[C@H]1CC[C@@H](c2cc(Nc3ccc4c(c3F)CS(=O)(=O)N4C3CC3)n[nH]2)C1 (single isomer, unassigned) [Example 363a, cis-3-(3-((1-cyclopropyl-4-fluoro-2,2-dioxido-1,3-dihydrobenzo[c]isothiazol-5-yl)amino)-1H-pyrazol-5-yl)cyclopentyl(1-hydroxy-2-methylpropan-2-yl)carbamate] |
| 863 nM | 1.5 nM | CC(C)(CO)NC(=O)O[C@H]1CC[C@@H](c2cc(Nc3ccc4c(c3F)CS(=O)(=O)N4C3CC3)n[nH]2)C1 (single isomer, unassigned) [Example 363b, cis-3-(3-((1-cyclopropyl-4-fluoro-2,2-dioxido-1,3-dihydrobenzo[c]isothiazol-5-yl)amino)-1H-pyrazol-5-yl)cyclopentyl(1-hydroxy-2-methylpropan-2-yl)carbamate] |
| 3250 nM | 2.3 nM | O=C(NC12CC(C1)C2)O[C@H]1CC[C@@H](c2cc(Nc3cc4c(cc3F)S(=O)(=O)NC4)n[nH]2)C1 (single isomer, unassigned) [Example 422a, cis-3-(3-((6-fluoro-1,1-dioxido-2,3-dihydrobenzo[d]isothiazol-5-yl)amino)-1H-pyrazol-5-yl)cyclopentyl bicyclo[1.1.1]pentan-1-ylcarbamate] |
| 980 nM | 1 nM | O=C(NC12CC(C1)C2)O[C@H]1CC[C@@H](c2cc(Nc3cc4c(cc3F)S(=O)(=O)NC4)n[nH]2)C1 (single isomer, unassigned) [Example 422b, cis-3-(3-((6-fluoro-1,1-dioxido-2,3-dihydrobenzo[d]isothiazol-5-yl)amino)-1H-pyrazol-5-yl)cyclopentyl bicyclo[1.1.1]pentan-1-ylcarbamate] |
| 145 nM | 1.1 nM | CC1(NC(=O)O[C@@H]2CC[C@H](c3cc(Nc4ccc5c(c4F)CS(=O)(=O)N5)n[nH]3)C2)CCC1 (single isomer, unassigned) [Example 427a] |
| 68 nM | 0.8 nM | CC1(NC(=O)O[C@H]2CC[C@@H](c3cc(Nc4ccc5c(c4F)CS(=O)(=O)N5)n[nH]3)C2)CCC1 (single isomer, unassigned) [Example 427b] |
| 1770 nM | 3.6 nM | CC(C)NC(=O)O[C@@H]1CC[C@H](c2cc(Nc3ccc4c(c3F)CCS(=O)(=O)N4)n[nH]2)C1 (single isomer, unassigned) [Example 430a] |
| 784 nM | 2.2 nM | CC(C)NC(=O)O[C@H]1CC[C@@H](c2cc(Nc3ccc4c(c3F)CCS(=O)(=O)N4)n[nH]2)C1 (single isomer, unassigned) [Example 430b] |
| 3100 nM | 18 nM | CCCNC(=O)O[C@@H]1CC[C@H](c2cc(Nc3ccc4c(c3F)CS(=O)(=O)N4CC(C)(C)O)n[nH]2)C1 [Example 433a] |
| 1450 nM | 18 nM | CCCNC(=O)O[C@H]1CC[C@@H](c2cc(Nc3ccc4c(c3F)CS(=O)(=O)N4CC(C)(C)O)n[nH]2)C1 [Example 433b] |

Second part, the molecule before the results:

| SMILES | IC50 (CDK1/Cyclin B1) | IC50 (CDK2/Cyclin E1) |
| --- | --- | --- |
| CCCNC(=O)O[C@H]1CC[C@@H](c2cc(Nc3ccc4c(c3F)CCS(=O)(=O)N4)n[nH]2)C1 (relative stereo) [Example 460, cis-3-(3-((5-fluoro-2,2-dioxido-3,4-dihydro-1H-benzo[c][1,2]thiazin-6-yl)amino)-1H-pyrazol-5-yl)cyclopentyl propylcarbamate] | 593 nM | 3.1 nM |
| CC[C@H](C)NC(=O)O[C@H]1CC[C@@H](c2cc(Nc3ccc4c(c3F)CCS(=O)(=O)N4)n[nH]2)C1 (relative stereo) [Example 461, cis-3-(3-((5-fluoro-2,2-dioxido-3,4-dihydro-1H-benzo[c][1,2]thiazin-6-yl)amino)-1H-pyrazol-5-yl)cyclopentyl((S)-sec-butyl)carbamate] | 271 nM | 0.3 nM |
| CC1(NC(=O)O[C@H]2CC[C@@H](c3cc(Nc4ccc5c(c4F)CCS(=O)(=O)N5)n[nH]3)C2)CC1 (relative stereo) [Example 462, cis-3-(3-((5-fluoro-2,2-dioxido-3,4-dihydro-1H-benzo[c][1,2]thiazin-6-yl)amino)-1H-pyrazol-5-yl)cyclopentyl(1-methylcyclopropyl)carbamate] | 349 nM | 0.7 nM |
| CC(C)NC(=O)O[C@H]1CC[C@@H](c2cc(Nc3ccc4c(c3F)NS(=O)(=O)N4)n[nH]2)C1 (relative stereo) [Example 465, cis-3-(3-((4-fluoro-2,2-dioxido-1,3-dihydrobenzo[c][1,2,5]thiadiazol-5-yl)amino)-1H-pyrazol-5-yl)cyclopentyl isopropylcarbamate] | 4890 nM | 18 nM |
| CC(C)NC(=O)O[C@H]1CC[C@@H](c2cc(Nc3ccc4c(c3F)N(C)S(=O)(=O)N4)n[nH]2)C1 (relative stereo) [Example 466, cis-3-(3-((4-fluoro-3-methyl-2,2-dioxido-1,3-dihydrobenzo[c][1,2,5]thiadiazol-5-yl)amino)-1H-pyrazol-5-yl)cyclopentyl isopropylcarbamate] | > 10000 nM | 63 nM |
| CC(C)NC(=O)O[C@H]1CC[C@@H](c2cc(Nc3ccc4c(c3F)NS(=O)(=O)N4C)n[nH]2)C1 (relative stereo) [Example 467, cis-3-(3-((4-fluoro-1-methyl-2,2-dioxido-1,3-dihydrobenzo[c][1,2,5]thiadiazol-5-yl)amino)-1H-pyrazol-5-yl)cyclopentyl isopropylcarbamate] | > 10000 nM | 530 nM |
| CC(C)NC(=O)O[C@H]1CC[C@@H](c2cc(Nc3ccc4c(c3F)CS(=O)(=O)N4CC(C)(C)O)n[nH]2)C1 (single isomer, unassigned) [Example 254a, cis-3-(3-((4-fluoro-1-(2-hydroxy-2-methylpropyl)-2,2-dioxido-1,3-dihydrobenzo[c]isothiazol-5-yl)amino)-1H-pyrazol-5-yl)cyclopentyl isopropylcarbamate] | 3740 nM | 12 nM |
| CC(C)NC(=O)O[C@H]1CC[C@@H](c2cc(Nc3ccc4c(c3F)CS(=O)(=O)N4CC(C)(C)O)n[nH]2)C1 (single isomer, unassigned) [Example 254b, cis-3-(3-((4-fluoro-1-(2-hydroxy-2-methylpropyl)-2,2-dioxido-1,3-dihydrobenzo[c]isothiazol-5-yl)amino)-1H-pyrazol-5-yl)cyclopentyl isopropylcarbamate] | 1380 nM | 8.9 nM |
| CN1c2ccc(Nc3cc([C@@H]4CC[C@H](OC(=O)NCC(C)(C)O)C4)[nH]n3)c(F)c2CS1(=O)=O (single isomer, unassigned) [Example 330a, cis-3-(3-((4-fluoro-1-methyl-2,2-dioxido-1,3-dihydrobenzo[c]isothiazol-5-yl)amino)-1H-pyrazol-5-yl)cyclopentyl(2-hydroxy-2-methylpropyl)carbamate] | > 10000 nM | 84 nM |
| CN1c2ccc(Nc3cc([C@@H]4CC[C@H](OC(=O)NCC(C)(C)O)C4)[nH]n3)c(F)c2CS1(=O)=O (single isomer, unassigned) [Example 330b, cis-3-(3-((4-fluoro-1-methyl-2,2-dioxido-1,3-dihydrobenzo[c]isothiazol-5-yl)amino)-1H-pyrazol-5-yl)cyclopentyl(2-hydroxy-2-methylpropyl)carbamate] | 4090 nM | 24 nM |
| CC(C)(C)NC(=O)O[C@H]1CC[C@@H](c2cc(Nc3ccc4c(c3F)CCS(=O)(=O)N4)n[nH]2)C1 [Example 463, (1S,3R)-3-(3-((5-fluoro-2,2-dioxido-3,4-dihydro-1H-benzo[c][1,2]thiazin-6-yl)amino)-1H-pyrazol-5-yl)cyclopentyl tert-butylcarbamate] | 140 nM | 0.4 nM |
| CC(C)(C)NC(=O)O[C@@H]1CC[C@H](c2cc(Nc3ccc4c(c3F)CCS(=O)(=O)N4)n[nH]2)C1 [Example 464, (1R,3S)-3-(3-((5-fluoro-2,2-dioxido-3,4-dihydro-1H-benzo[c][1,2]thiazin-6-yl)amino)-1H-pyrazol-5-yl)cyclopentyl tert-butylcarbamate] | 325 nM | 0.8 nM |
